Test results: patent US20140046021A1, “SELF-MAGNETIC METAL-SALEN COMPLEX COMPOUND” (IHI CORPORATION, priority 2011, published 2014)

Test: magnetic field-magnetization curve measured with MPMS7 (Quantum Design)
Type: physicochemical
Settings: 37 degrees Celsius (310 K)
Description: Also, FIG. 8 is a graph showing the magnetic field-magnetization curves of the Mn salen complex, the Cr salen complex, and the Fe salen complex.

Structure (SMILES): [Co+2].[O-]c1ccccc1C=NCCN=Cc1ccccc1[O-] [Co salen complex]
- magnetism from magnetic field-magnetization curve: paramagnetic
